Patent US20220279826A1, “OFF-FLAVOR SUPPRESSING AGENT” (AJINOMOTO CO., INC., priority 2019, published 2022)

Legend:
[1] = Sensory evaluation in granular fava bean protein (Experimental Example 16); conditions: Table 30
Method: Each compound shown in the following Table 30 was added to granular fava bean protein (manufactured by Schouten) so as to achieve the concentration (addition concentration) shown in the following Table 30 to prepare each evaluation sample.
(§1) Based on the following evaluation criteria, a panel of four experts determined by consensus the intensity of off-tastes (bitter taste, harsh taste, astringent taste) derived from fava bean protein in each evaluation sample, by comparison with granular fava bean protein without addition of any compound (negative control).

[2] = Sensory evaluation in soy protein aqueous solution (Experimental Example 13); conditions: Table 27
Method: Each compound shown in the following Table 27 was added to an aqueous solution prepared by dissolving powdered soy protein (4 parts by weight) in water (96 parts by weight) (hereinafter at times referred to as soy protein aqueous solution) so as to achieve the concentration (addition concentration) shown in the following Table 27 to prepare each evaluation sample. Here, the powdered soy protein manufactured by FUJI OIL CO., LTD. was used.
(§2) Based on the following evaluation criteria, a panel of four experts determined by consensus the intensity of off-tastes (bitter taste, harsh taste, astringent taste) derived from soy protein in each evaluation sample, by comparison with a soy protein aqueous solution without addition of any compound (negative control).

[3] = Sensory evaluation in 0.15 wt % catechin aqueous solution (Experimental Example 9); conditions: summary of Table 23
Method: (§3) Each compound shown in the following Table 23 was added to a 0.15 wt % catechin aqueous solution (an aqueous solution prepared by dissolving catechin (0.15 parts by weight) in ion exchange water (99.85 parts by weight)) so as to achieve the concentration (addition concentration) shown in the following Table 23 to prepare each evaluation sample.
as §2, with “taste, rough taste,” for “taste,”, “harsh” for “harsh taste, astringent”, “from catechin” for “from soy protein”, “a 0.15 wt % catechin” for “a soy protein”

[4] = Sensory evaluation of off-taste suppressing effect in 0.8 wt % potassium chloride aqueous solution (Experimental Examples 1 and 2)
[5] = Sensory evaluation in 0.12 wt % aspartame aqueous solution (Experimental Example 12); conditions: Table 26
Method: as §3, with “26” for “23”, “0.12” for “0.15”, “aspartame” for “catechin”, “aspartame (0.12” for “catechin (0.15”, “(99.88” for “(99.85”
as §2, with “of three” for “of four”, “taste, metallic” for “taste, astringent”, “from aspartame” for “from soy protein”, “a 0.12 wt % aspartame” for “a soy protein”

[6] = Sensory evaluation in granular pea protein (Experimental Example 15); conditions: Table 29
Method: Each compound shown in the following Table 29 was added to granular pea protein (manufactured by Roquette) so as to achieve the concentration (addition concentration) shown in the following Table 29 to prepare each evaluation sample.
as §1, with “pea” for “fava bean”

[7] = Sensory evaluation in stevia aqueous solution (Experimental Example 7); conditions: text summary of Table 21
Method: Each compound shown in the following Table 21 was added […] to an aqueous solution prepared by dissolving stevia (manufactured by PureCircle) ([…]) in ion exchange water (99.93 parts by weight) (hereinafter at times referred to as stevia aqueous solution) so as to achieve the concentration (addition concentration) shown in the following Table 21 to prepare each evaluation sample.
as §2, with “metallic” for “astringent”, “stevia” for “soy protein”

[8] = Sensory evaluation in 1 wt % methyl cellulose aqueous solution (Experimental Example 20); conditions: Table 35
Method: Each compound shown in the following Table 35 was added to a 1 wt % methyl cellulose aqueous solution (aqueous solution prepared by dissolving methyl cellulose (1 part by weight) in water (99 parts by weight)) so as to achieve the concentration (addition concentration) shown in the following Table 35 to prepare each evaluation sample. Here, the methyl cellulose manufactured by Unitec Foods Co., Ltd. was used.
as §2, with “from methyl cellulose” for “from soy protein”, “a 1 wt % methyl cellulose” for “a soy protein”

[9] = Sensory evaluation in granular soy protein (Experimental Example 14); conditions: text summary of Table 28
Method: Each compound shown in the following Table 28 was added to granular soy protein (manufactured by FUJI OIL CO., LTD.) so as to achieve the concentration (addition concentration) shown in the following Table 28 to prepare each evaluation sample.
as §1, with “soy” for “fava bean”

[10] = 0.8 wt % potassium chloride aqueous solution, addition concentration 5 weight ppb (0.625 weight ppm with respect to potassium chloride)
[11] = 0.8 wt % potassium chloride aqueous solution, addition concentration 10 weight ppb (1.25 weight ppm with respect to potassium chloride)
[12] = 0.8 wt % potassium chloride aqueous solution, addition concentration 50 weight ppb (6.25 weight ppm with respect to potassium chloride)
[13] = 0.8 wt % potassium chloride aqueous solution, addition concentration 100 weight ppb (12.5 weight ppm with respect to potassium chloride)
[14] = in words, potassium chloride aqueous solutions, Tables 1 to 14
[15] = potassium chloride aqueous solutions, Tables 1 to 14

| SMILES | intensity of off-tastes (bitter taste, harsh taste, astringent taste) derived from fava bean protein [1] | intensity of off-tastes (bitter taste, harsh taste, astringent taste) derived from soy protein [2] | intensity of off-tastes (bitter taste, rough taste, harsh taste) derived from catechin [3] | off-taste suppressing effect ([4]; 0.8 wt % potassium chloride aqueous solution, addition concentration 1 weight ppb (0.125 weight ppm with respect to potassium chloride)) | off-taste suppressing effect [4, 10] | off-taste suppressing effect [4, 11] | off-taste suppressing effect [4, 12] | off-taste suppressing effect [4, 13] | off-taste suppressing effect [4, 14] | intensity of off-tastes (bitter taste, metallic taste, harsh taste, astringent taste) derived from potassium chloride [4, 15] | intensity of off-tastes (bitter taste, harsh taste, metallic taste) derived from aspartame [5] | intensity of off-tastes (bitter taste, harsh taste, astringent taste) derived from pea protein [6] | intensity of off-tastes (bitter taste, harsh taste, metallic taste) derived from stevia [7] | intensity of off-tastes (bitter taste, harsh taste, astringent taste) derived from methyl cellulose [8] | intensity of off-tastes (bitter taste, harsh taste, astringent taste) derived from soy protein [9] | off-taste suppressing effect ([4]; 0.8 wt % potassium chloride aqueous solution, addition concentration 500 weight ppb (62.5 weight ppm with respect to potassium chloride)) | off-taste suppressing effect ([4]; 0.8 wt % potassium chloride aqueous solution, addition concentration 1000 weight ppb (125 weight ppm with respect to potassium chloride)) | off-taste suppressing effect ([4]; 0.8 wt % potassium chloride aqueous solution, addition concentration 2000 weight ppb (250 weight ppm with respect to potassium chloride)) |
| --- | --- | --- | --- | --- | --- | --- | --- | --- | --- | --- | --- | --- | --- | --- | --- | --- | --- | --- |
| CC1=C(O)C(=O)CC1 [cyclotene] | suppressed | suppressed | suppressed | + (intensity of the same level as potassium chloride aqueous solution with potassium chloride concentration of not less than 0.75 wt % and less than 0.8 wt %) | ++ (intensity of the same level as potassium chloride aqueous solution with potassium chloride concentration of not less than 0.7 wt % and less than 0.75 wt %) | +++ (intensity of the same level as potassium chloride aqueous solution with potassium chloride concentration of not less than 0.65 wt % and less than 0.7 wt %) | +++ (intensity of the same level as potassium chloride aqueous solution with potassium chloride concentration of not less than 0.65 wt % and less than 0.7 wt %) | ++ (intensity of the same level as potassium chloride aqueous solution with potassium chloride concentration of not less than 0.7 wt % and less than 0.75 wt %) | high | decreased | suppressed | suppressed | suppressed | suppressed | suppressed |  |  |  |
| O=Cc1ccco1 [furfural, Furfural] | suppressed | suppressed | suppressed |  | + (intensity of the same level as potassium chloride aqueous solution with potassium chloride concentration of not less than 0.75 wt % and less than 0.8 wt %) | +++ (intensity of the same level as potassium chloride aqueous solution with potassium chloride concentration of not less than 0.65 wt % and less than 0.7 wt %) | +++ (intensity of the same level as potassium chloride aqueous solution with potassium chloride concentration of not less than 0.65 wt % and less than 0.7 wt %) | + (intensity of the same level as potassium chloride aqueous solution with potassium chloride concentration of not less than 0.75 wt % and less than 0.8 wt %) | high | decreased | suppressed | suppressed | suppressed | suppressed | suppressed |  |  |  |
| CCC(=O)O [propionic acid] | suppressed | suppressed | suppressed |  |  |  |  | + (intensity of the same level as potassium chloride aqueous solution with potassium chloride concentration of not less than 0.75 wt % and less than 0.8 wt %) | high | decreased | suppressed | suppressed | suppressed | suppressed | suppressed | ++ (intensity of the same level as potassium chloride aqueous solution with potassium chloride concentration of not less than 0.7 wt % and less than 0.75 wt %) | ++ (intensity of the same level as potassium chloride aqueous solution with potassium chloride concentration of not less than 0.7 wt % and less than 0.75 wt %) | ++ (intensity of the same level as potassium chloride aqueous solution with potassium chloride concentration of not less than 0.7 wt % and less than 0.75 wt %) |
